Measured values taken from patent publication US20090298150A1, “PRODUCTION OF SQUALENE USING YEAST” (priority 2008, published 2009).

Tests used:
[1] = system: Yarrowia lipolytica ATCC 90904; experiment: Cultivation of Yarrowia lipolytica in CYM001 media with supplements; squalene and lipid production; format: cell-based; conditions: 30° C., 300 rpm, 120 h
Description: Environmental manipulations are tested to increase the net yield of squalene. These include (a) inhibiting ACCase expression and/or activity with oleic acid, olive or other vegetable oil(s), inositol, choline, soraphen, fluazifop, and clethodim or other ACCase inhibiting herbicides, (b) inhibiting squalene epoxidase expression and/or activity with terbinafine, tolnaftate, and ergosterol or other squalene epoxidase inhibiting fungicides, (c) manipulating the C/N ratio in glycerol-based media (in the starting media or by add-ins), (d) varying the nitrogen source in the media (organic vs. inorganic vs. simple/complex), (e) varying carbon addition regimes (e.g. batch vs. feeding), (f) examining the effect of depleting nutrients other than carbon source, (g) varying the carbon source to include mixtures of sugars, sugar alcohols, alcohols, polyalcohols, and organic acids, (h) selecting for growth on HMGR-inhibitory compounds such as lovastatin or other statin-type inhibitors, and (i) selecting for high oil production in culture using lipophillic dyes or stains and/or by analyzing for extractable lipids using, for example, gravimetric or gas chromatographic methods.
For example, Yarrowia lipolytica ATCC 90904 was cultivated in high Carbon/Nitrogen ratio media (C/N=420, Li, Y-H., Liu, B., Zhao, Z-B., and Bai, F-W. 2006 “Optimized Culture Medium and Fermentation Conditions for Lipid Production by Rhodosporidium toruloides” Chinese Journal of Biotechnology 22(4): 650-656) (hereinafter “CYM001 Media”) supplemented with 0 to 50 μg/ml terbinafine at 30° C., 300 rpm for 120 h. […]
In a further example, Yarrowia lipolytica ATCC 90904 was cultivated in CYM001 media supplemented with 0 to 200 μM clethodim at 30° C., 300 rpm for 120 h.

Cryptococcus curvatus = Cryptococcus curvatus growth on carbon sources (cell mass in culture); conditions: 12% w/v glycerol; Yeast Extract-based rich media; after 5 days
Description: Cryptococcus curvatus growth was evaluated to determine the best carbon sources to maximize its cell mass in culture. In a Yeast Extract-based rich media (10 g/L yeast extract, 20 g/L peptone), C. curvatus grew well in 2-20% w/v glucose, achieving a maximal level of 55 g/L cell dry weight (CDW) at 16% w/v glucose and above after 4 days. Similarly, C. curvatus grew in the same media with 3-12% w/v glycerol, achieving a CDW of 40 g/L in 12% w/v glycerol after 5 days. C. curvatus was also grown in Biodiesel glycerol (Imperial Western Products, Coachella, Calif.) up to 3.5% w/v, resulting in 23 g/L CDW.

Question: How did the “squalene as % of total lipid” value ([1]; 12.5 μg/ml or higher terbinafine, CYM001 Media) turn out when `CN(C/C=C/C#CC(C)(C)C)Cc1cccc2ccccc12` [terbinafine] was run?
Answer: The value was “up to 18.5%”.

Question: Which “increase in the yield (mg) of squalene per 60-ml flask” value ([1]; 200 μM clethodim, CYM001 media) does the source give for `CCSC(C)CC1CC(=O)C(/C(CC)=N/OC/C=C/Cl)=C(O)C1` (stereo not shown) [clethodim] here?
Answer: Its value is 60 fold.

Question: With `OCC(O)CO` [glycerol] as the molecule, how does the “cell dry weight (CDW)” value (Cryptococcus curvatus) read?
Answer: Its value is 40 g/L.

Question: Which “lipid accumulation, % lipid/CDW (cell dry weight)” value ([1]; 10 μl/ml Oleic acid, CYM001 media) does the source give for `CCCCCCCC/C=C\CCCCCCCC(=O)O` [Oleic acid] here?
Answer: The value was 63.3 % lipid/CDW.
